Results taken from patent US9750727B2 (priority 2010, dated 2017).
Where two headings read alike, the source gives them in different places.

Experiments:
[1] = tested on: M. bovis bovinus 8; assay type: in vivo, mice
[2] = tested on: M. bovis bovinus 8; assay type: in vivo, mice; remark: listed apart in the source
[3] = tested on: M. bovis bovinus 8; assay type: in vivo, mice; conditions: combination of the new treatment with the TB drug
[4] = in vivo; cited from earlier work
[5] = tested on: M. bovis bovinus 8; assay type: in vivo, rabbits; conditions: for Body weight ITE (%): 15 mg/kg
[6] = Stability during storage; assay type: physicochemical
[7] = tested on: M. bovis bovinus 8; assay type: cell-based
[8] = tested on: M. tuberculosis “Academia”; assay: Double serial dilution, growth of drug-sensitive test strain; assay type: cell-based; parameters: key to Degree of mycobacterial growth: primary inhibition of mycobacterial growth (++)
[9] = tested on: M. bovis bovinus 8; parameters: species or system mice; conditions: mouse, in vivo
[10] = tested on: Mycobacteria tuberculosis; assay: Tuberculostatic activity compared with the prototype drug; conditions: in comparison with the prototype drug
[11] = General toxicity; assay type: in vivo
[12] = Allergenic, immunotoxic and mutagenic properties
[13] = tested on: gram-positive and gram-negative microorganisms; assay type: cell-based
[14] = Embryo toxicity, teratogenicity and reproductive function; assay type: in vivo, animals
[15] = tested on: M. tuberculosis H37Rv; assay: Double serial dilution, growth of drug-sensitive test strain; assay type: cell-based; parameters: key to Degree of mycobacterial growth: primary inhibition of mycobacterial growth (++)
[16] = tested on: M. tuberculosis Erdman; assay: as above; assay type: cell-based; parameters: key to Degree of mycobacterial growth: primary inhibition of mycobacterial growth (++); conditions: for Degree of mycobacterial growth: 10^6 cells/ml
[17] = TB drug combined with the new treatment (20 mg/kg, per os) vs TB drug monotherapy, mice, 42 days
[18] = TB drug combined with the new treatment (20 mg/kg, per os) vs TB drug monotherapy, mice, 42 days of treatment
[19] = new treatment in combination with the TB drug, compared to monotherapy with the new treatment alone
[20] = rabbits, 15 mg/kg per os, vs infection control
[21] = 3.125 μg/ml in medium, 10^6 cells/ml

NCC[C@H](O)C(=O)N[C@@H]1C[C@H](N)[C@@H](O[C@H]2O[C@H](CN)[C@@H](O)[C@H](O)[C@H]2O)[C@H](O)[C@H]1O[C@H]1O[C@H](CO)[C@@H](O)[C@H](N)[C@H]1O [Amycacin, amycacin]
decrease in the coefficient of liver weight ([1]; mouse, in vivo): 34.6%
decrease in the index of lung damage ([1]; mouse, in vivo): 1.8%
effect of combination on therapeutic effectiveness, in words ([1]; mouse, in vivo): increased the therapeutic effectiveness
increase in therapeutic effectiveness (average of indices of organ damage) ([1]; mouse, in vivo): 11.34%
Scored sum of area: Breathing lung tissue ([2]; mouse, in vivo): 17.7
Scored sum of area: Dense lymphocytic infiltrate ([2]; mouse, in vivo): 3.12
Scored sum of area: Desquamative pneumonia ([2]; mouse, in vivo): 2.94
Scored sum of area: Polymorpho cellular infiltrate ([2]; mouse, in vivo): 0
Scored sum of area: Total lung tissue ([2]; mouse, in vivo): 23.76
improvement of the indices of lung damage (morphological) ([2]; mouse, in vivo): 2.56%

CC[C@@H](CO)NCCN[C@@H](CC)CO [Ethambutol, ethambutol]
therapeutic effectiveness of the combination, in words [3]: weak therapeutic effectiveness
decrease in CFU levels in the spleen [1, 17]: 33.3%
decrease in coefficient of spleen weight [1, 17]: 22.1%
decrease in the coefficient of liver weight [1, 17]: 8.9%
increase in the index of lung damage [1, 17]: 4.0%
increase in the index of lung weight [1, 17]: 3.1%
increase in therapeutic effectiveness (average of indices of organ damage) [1, 18]: 11.44%
effect of combination on therapeutic effectiveness, in words [1, 19]: increased the therapeutic effectiveness
Scored sum of area: Breathing lung tissue ([2]; mice, 42 days of treatment): 9.78
Scored sum of area: Dense lymphocytic infiltrate ([2]; mice, 42 days of treatment): 6.8
Scored sum of area: Desquamative pneumonia ([2]; mice, 42 days of treatment): 6.93
Scored sum of area: Polymorpho cellular infiltrate ([2]; mice, 42 days of treatment): 0.27
Scored sum of area: Total lung tissue ([2]; mice, 42 days of treatment): 23.78

NNC(=O)c1ccncc1 [Isoniazid, isonicotinic acid hydrazide]
LD50 [4]: 150 mg/kg
Body weight % of initial ([5]; rabbits, 15 mg/kg per os): −6.99%
Lethality % of initial number ([5]; rabbits, 15 mg/kg per os): 0%
Lethality ITE (%) [5, 20]: +100.0%
Body weight ITE (%) [5, 20]: +74.67%
Body weight ITE (%) ([5]; rabbits, 15 mg/kg per os, vs infection control, listed as isoniazid): 74.67%
decrease in CFU levels in the spleen [1, 17]: 25%
decrease in the coefficient of liver weight [1, 17]: 3.6%
increase in therapeutic effectiveness (average of indices of organ damage) [1, 18]: 13.9%
effect of combination on therapeutic effectiveness, in words [1, 19]: increased the therapeutic effectiveness
Scored sum of area: Breathing lung tissue ([2]; mice, 42 days of treatment): 17.5
Scored sum of area: Dense lymphocytic infiltrate ([2]; mice, 42 days of treatment): 1.59
Scored sum of area: Desquamative pneumonia ([2]; mice, 42 days of treatment): 3.52
Scored sum of area: Polymorpho cellular infiltrate ([2]; mice, 42 days of treatment): 0.86
Scored sum of area: Total lung tissue ([2]; mice, 42 days of treatment): 23.47

CC1COc2c(N3CCN(C)CC3)c(F)cc3c(=O)c(C(=O)O)cn1c23 (centres unmarked) [Ofloxacin]
decrease in indices (of therapeutic effectiveness), range over indices [1, 17]: 4.65% to 11.9
increase in the index of lung damage [1, 17]: 2.6%
decrease in therapeutic effectiveness [1, 18]: 6.2%
Scored sum of area: Breathing lung tissue ([2]; mice, 42 days of treatment): 7.32
Scored sum of area: Dense lymphocytic infiltrate ([2]; mice, 42 days of treatment): 6.32
Scored sum of area: Desquamative pneumonia ([2]; mice, 42 days of treatment): 10.49
Scored sum of area: Polymorpho cellular infiltrate ([2]; mice, 42 days of treatment): 0.04
Scored sum of area: Total lung tissue ([2]; mice, 42 days of treatment): 24.17

CO[C@H]1/C=C/O[C@@]2(C)Oc3c(C)c(O)c4c(c3C2=O)C2=NC3(CCN(CC(C)C)CC3)NC2=C(NC(=O)/C(C)=C\C=C\[C@H](C)[C@H](O)[C@@H](C)[C@@H](O)[C@@H](C)[C@H](OC(C)=O)[C@@H]1C)C4=O [Rifabutin, rifabutin]
decrease in coefficient of lung weight [1, 17]: 12.4%
decrease in coefficient of spleen weight [1, 17]: 20.6%
increase in the coefficient of liver weight [1, 17]: 0.4%
increase in the index of lung damage [1, 17]: 7.4%
increase in therapeutic effectiveness (average of indices of organ damage) [1, 18]: 7.68%
effect of combination on therapeutic effectiveness, in words [1, 19]: increased the therapeutic effectiveness
Scored sum of area: Breathing lung tissue ([2]; mice, 42 days of treatment): 23.27
Scored sum of area: Dense lymphocytic infiltrate ([2]; mice, 42 days of treatment): 0.53
Scored sum of area: Desquamative pneumonia ([2]; mice, 42 days of treatment): 0.16
Scored sum of area: Polymorpho cellular infiltrate ([2]; mice, 42 days of treatment): 0
Scored sum of area: Total lung tissue ([2]; mice, 42 days of treatment): 23.96

CO[C@H]1/C=C/O[C@@]2(C)Oc3c(C)c(O)c4c(O)c(c(/C=N/N5CCN(C)CC5)c(O)c4c3C2=O)NC(=O)/C(C)=C\C=C\[C@H](C)[C@H](O)[C@@H](C)[C@@H](O)[C@@H](C)[C@H](OC(C)=O)[C@@H]1C [Rifampicin, rifampicin]
decrease in coefficient of lung weight [1, 17]: 18.2%
decrease in coefficient of spleen weight [1, 17]: 34.6%
decrease in the coefficient of liver weight [1, 17]: 1.6%
increase in CFU levels [1, 17]: 6.19%
increase in therapeutic effectiveness (average of indices of organ damage) [1, 18]: 9.66%
Scored sum of area: Breathing lung tissue ([2]; mice, 42 days of treatment): 19.65
Scored sum of area: Desquamative pneumonia ([2]; mice, 42 days of treatment): 1.94
Scored sum of area: Polymorpho cellular infiltrate ([2]; mice, 42 days of treatment): 0
Scored sum of area: Total lung tissue ([2]; mice, 42 days of treatment): 23.96

NC(=S)NN=Cc1ccncc1.[O-][Cl+3]([O-])([O-])O [new treatment]
time for which appearance, physical characteristics and biological properties are stable [6]: 3 years
complete inhibition (MIC) [7]: 1.56 µg/mL
concentration of primary inhibition of mycobacterial growth (++) [7]: 0.19 µg/mL
Degree of mycobacterial growth [8, 21]: ++
MIC ([8]; M. tuberculosis “Academia”): 6.25 µg/mL
Body weight % of initial ([9]; 10 mg/kg): 81.9%
Lethality % ([9]; 10 mg/kg): 62.5%
Body weight % of initial ([9]; 20 mg/kg): 94.5%
Lethality % ([9]; 20 mg/kg): 25.0%
Body weight % of initial ([9]; 30 mg/kg): 92.6%
Lethality % ([9]; 30 mg/kg): 2.4%
Body weight % of initial ([5]; rabbit, in vivo, 20 mg/kg): −7.13%
Lethality % of initial number ([5]; rabbit, in vivo, 20 mg/kg): 0%
Lethality ITE (%) ([5]; rabbit, in vivo, 20 mg/kg): +100.0%
tuberculostatic activity relative to the prototype drug (higher) [10]: 200 times
toxicity relative to the prototype drug (lower) ([11]; in comparison with the prototype drug): 2.4 times
damage to vital organs and systems ([11]; in vivo): neither a significant structural and functional damage to vital organs and systems
toxicity, in words ([11]; in vivo): low toxic agent
allergenic properties [12]: no
immunotoxic properties [12]: no
mutagenic properties [12]: no
effect on the growth of gram-positive and gram-negative microorganisms [13]: did not affect the growth
dose with teratogenic effect (non life-threatening skeletal malformations, delay in ossification, edema, subcutaneous hemorrhage) ([14]; administered during organogenesis, five times the therapeutic dose): 100 mg/kg
effect on the reproductive function and offspring development in animals ([14]; continued administration): no effect
alterations in placenta development and sex formation ([14]; in vivo): no alterations
embryo toxicity ([14]; mainly if administered during organogenesis): moderate embryo toxicity
Degree of mycobacterial growth [15, 21]: ++
MIC ([15]; M. tuberculosis H37RV): 6.25 µg/mL
Degree of mycobacterial growth ([16]; 0.19 μg/ml in medium): ++
Degree of mycobacterial growth ([16]; 0.39 μg/ml in medium): ++
Degree of mycobacterial growth ([16]; 0.78 μg/ml in medium): ++
MIC ([16]; M. tuberculosis Erdman): 3.125 µg/mL
